Laboratory results: PubChem BioAssay AID330 (DTP/NCI, 2004)
Several values for one entry are separate records, joined by “and”; a condition that tells them apart may be missing. Equal entries are not always repeated. Toxic doses and inconclusive results are not listed. The calls were made as follows: active = survival T/C of 150% or more; inactive = T/C below 125% in these data.

Test system: P388 leukemia ip, CD2F1 mice, survival T/C
Assay: NCI In Vivo Anticancer Drug Screen. Data for tumor model P388 Leukemia (intraperitoneal) in CD2F1 (CDF1) mice
Conditions: endpoint: median survival time, higher = longer survival
In short: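 Mice carrying the transplanted tumor received test compound or vehicle. Survival was recorded in each group, and the value is the treated-group measurement divided by that of the vehicle-treated control group.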

[1] = dose: 50.0 mg/kg/injection, schedule: Q01DX005 (ip), vehicle: saline with Tween-80
[2] = dose: 100.0 mg/kg/injection, schedule: Q01DX005 (ip), vehicle: saline with Tween-80
[3] = dose: 200.0 mg/kg/injection, schedule: Q01DX005 (ip), vehicle: saline with Tween-80
[4] = dose: 50.0 mg/kg/injection, schedule: Q01DX009 (ip), vehicle: saline
[5] = dose: 200.0 mg/kg/injection, schedule: Q01DX009 (ip), vehicle: saline
[6] = dose: 50.0 mg/kg/injection, schedule: Q01DX009 (ip), vehicle: Klucel (hydroxypropylcellulose) (HPC)
[7] = dose: 100.0 mg/kg/injection, schedule: Q01DX009 (ip), vehicle: Klucel (hydroxypropylcellulose) (HPC)
[8] = dose: 200.0 mg/kg/injection, schedule: Q01DX009 (ip), vehicle: Klucel (hydroxypropylcellulose) (HPC)
[9] = dose: 100.0 mg/kg/injection, schedule: Q01DX009 (ip), vehicle: saline
[10] = dose: 60.0 mg/kg/injection, schedule: Q01DX005 (ip), vehicle: saline with Tween-80
[11] = dose: 120.0 mg/kg/injection, schedule: Q01DX005 (ip), vehicle: saline with Tween-80
[12] = dose: 240.0 mg/kg/injection, schedule: Q01DX005 (ip), vehicle: saline with Tween-80
[13] = dose: 50.0 mg/kg/injection, schedule: Q01DX005 (ip), vehicle: Klucel (hydroxypropylcellulose) (HPC)
[14] = dose: 100.0 mg/kg/injection, schedule: Q01DX005 (ip), vehicle: Klucel (hydroxypropylcellulose) (HPC)
[15] = dose: 200.0 mg/kg/injection, schedule: Q01DX005 (ip), vehicle: Klucel (hydroxypropylcellulose) (HPC)
[16] = dose: 50.0 mg/kg/injection, schedule: Q01DX009 (ip), vehicle: saline with Tween-80
[17] = dose: 6.25 mg/kg/injection, schedule: Q01DX009 (ip), vehicle: Klucel (hydroxypropylcellulose) (HPC)
[18] = dose: 12.5 mg/kg/injection, schedule: Q01DX009 (ip), vehicle: Klucel (hydroxypropylcellulose) (HPC)
[19] = dose: 25.0 mg/kg/injection, schedule: Q01DX009 (ip), vehicle: Klucel (hydroxypropylcellulose) (HPC)
[20] = dose: 60.0 mg/kg/injection, schedule: Q01DX005 (ip), vehicle: Klucel (hydroxypropylcellulose) (HPC)
[21] = dose: 120.0 mg/kg/injection, schedule: Q01DX005 (ip), vehicle: Klucel (hydroxypropylcellulose) (HPC)
[22] = dose: 240.0 mg/kg/injection, schedule: Q01DX005 (ip), vehicle: Klucel (hydroxypropylcellulose) (HPC)
[23] = dose: 12.5 mg/kg/injection, schedule: Q01DX009 (ip), vehicle: saline with Tween-80
[24] = dose: 25.0 mg/kg/injection, schedule: Q01DX009 (ip), vehicle: saline with Tween-80

Measured: T/C

CC(=O)Nc1ccc(N=NN(C)c2ccccc2)cc1
inactive: dose: 50.0 mg/kg/injection, schedule: Q01DX001 (ip), vehicle: saline 104 % of control | dose: 100.0 mg/kg/injection, schedule: Q01DX001 (ip), vehicle: saline 100 % of control

CN(Cc1ccccc1)C1=CC(=O)C(N(C)Cc2ccccc2)=CC1=O
inactive: [1] 105 % of control | [2] 115 % of control | [3] 101 % of control

O=C(O)O.[Eu]
inactive: [4] 95 % of control | [5] 93 % of control

C=C(C)/C(=C/C(=O)OCC)Sc1ccccc1
inactive: dose: 100.0 mg/kg/injection, schedule: Q04DX003 (ip), vehicle: Klucel (hydroxypropylcellulose) (HPC) 106 % of control | dose: 200.0 mg/kg/injection, schedule: Q04DX003 (ip), vehicle: Klucel (hydroxypropylcellulose) (HPC) 106 % of control | dose: 400.0 mg/kg/injection, schedule: Q04DX003 (ip), vehicle: Klucel (hydroxypropylcellulose) (HPC) 102 % of control

CCCCCCCC/C=C/CCCCCCCC(=O)N(C)CCOC(=O)C(C)(C)C
inactive: [6] 122 % of control and 95 % of control | [7] 106 % of control and 120 % of control | [8] 103 % of control and 114 % of control

O=C(O)/C(=N/NC(=O)c1ccccc1)c1ccccc1
inactive: dose: 100.0 mg/kg/injection, schedule: Q04DX002 (ip), vehicle: Klucel (hydroxypropylcellulose) (HPC) 98 % of control | dose: 200.0 mg/kg/injection, schedule: Q04DX002 (ip), vehicle: Klucel (hydroxypropylcellulose) (HPC) 98 % of control | dose: 400.0 mg/kg/injection, schedule: Q04DX002 (ip), vehicle: Klucel (hydroxypropylcellulose) (HPC) 92 % of control

O=C(O)c1c[nH]c2cc(OCc3ccc(Br)cc3)ccc2c1=O
inactive: [4] 96 % of control | [9] 89 % of control | [5] 86 % of control

C[N+]1(Cc2ccccc2)C2CCC1C(CCl)C(O)C2 (stereo not drawn)
inactive: dose: 3.12 mg/kg/injection, schedule: Q01DX009 (ip), vehicle: saline 111 % of control | dose: 6.25 mg/kg/injection, schedule: Q01DX009 (ip), vehicle: saline 115 % of control | dose: 12.5 mg/kg/injection, schedule: Q01DX009 (ip), vehicle: saline 101 % of control and 104 % of control

CC(C)N(C(=O)c1ccc([Si](C)(C)C)c(C(=O)N(C(C)C)C(C)C)n1)C(C)C
inactive: [10] 98 % of control | [11] 94 % of control | [12] 98 % of control

COc1ccc2nccc(/C=C/c3ccnc4ccc(OC)cc34)c2c1
inactive: [1] 103 % of control | [2] 103 % of control | [3] 100 % of control

CC(C)(C)/C=C/N1N=NC(c2ccccc2)(c2ccccc2)C1=O
inactive: [13] 91 % of control | [14] 92 % of control | [15] 96 % of control

Cc1cccc(C2=Nc3ccccc3N3CC=CC=C23)c1
inactive: [16] 110 % of control | dose: 100.0 mg/kg/injection, schedule: Q01DX009 (ip), vehicle: saline with Tween-80 97 % of control | dose: 200.0 mg/kg/injection, schedule: Q01DX009 (ip), vehicle: saline with Tween-80 92 % of control

O=C1C=CC(=O)N1C1CCCCC1
inactive: [17] 97 % of control | [18] 100 % of control | [19] 97 % of control

c1onc2c1C1CC3CC(C1)CC2C3
inactive: [6] 96 % of control | [7] 89 % of control | [8] 92 % of control

CCCCC1/C(=C/C(=O)c2ccccc2)Nc2ccccc2N1C(=O)c1ccccc1 (stereo not drawn)
inactive: [20] 97 % of control | [21] 89 % of control | [22] 90 % of control

Cc1cc(Br)ccc1N=c1scc(-c2ccc(Cl)cc2)n1C
inactive: [6] 95 % of control | [7] 93 % of control | [8] 91 % of control

COc1ccc2c3c([nH]c2c1)C(C)N(S(=O)(=O)c1ccccc1)CC3 (stereo not drawn)
inactive: dose: 12.5 mg/kg/injection, schedule: Q01DX005 (ip), vehicle: Klucel (hydroxypropylcellulose) (HPC) 98 % of control | dose: 25.0 mg/kg/injection, schedule: Q01DX005 (ip), vehicle: Klucel (hydroxypropylcellulose) (HPC) 92 % of control | [13] 98 % of control | [14] 98 % of control | [15] 93 % of control

NC(CCCCNCC(N)C(=O)O)C(=O)O (stereo not drawn)
inactive: [4] 91 % of control | [9] 89 % of control | [5] 92 % of control

COc1ccc(C2NC(=S)NC(C)=C2C(N)=O)cc1 (stereo not drawn)
inactive: [20] 101 % of control | [21] 95 % of control | [22] 96 % of control

Cc1ccc(S(=O)(=O)N/N=C2/C(=O)N(c3ccc(Cl)cc3C)C(=O)C(=O)C2c2nc3ccccc3s2)cc1 (stereo not drawn)
inactive: [10] 98 % of control | [11] 103 % of control | [12] 104 % of control

O=C1O[C@@H]2C3COC(O)[C@](O)(O3)[C@@H]2/C1=C\c1ccc(O)cc1 (stereo partly drawn)
inactive: dose: 4.0 mg/kg/injection, schedule: Q01DX005 (ip), vehicle: DMSO 115 % of control | dose: 8.0 mg/kg/injection, schedule: Q01DX005 (ip), vehicle: DMSO 109 % of control | dose: 16.0 mg/kg/injection, schedule: Q01DX005 (ip), vehicle: DMSO 113 % of control | dose: 32.0 mg/kg/injection, schedule: Q01DX005 (ip), vehicle: DMSO 113 % of control

COC(=O)CCSCCO
inactive: [10] 119 % of control | [11] 109 % of control | [12] 101 % of control

[Cl][Pt+2][Cl].[NH-]c1cccc(C(F)(F)F)c1.[NH-]c1cccc(C(F)(F)F)c1
inactive: dose: 3.12 mg/kg/injection, schedule: Q01DX009 (ip), vehicle: Klucel (hydroxypropylcellulose) (HPC) 103 % of control and 111 % of control | [17] 97 % of control | [18] 111 % of control | [19] 106 % of control

CCCOC(=O)/C=C(\Br)C(=O)OCCC
inactive: dose: 6.25 mg/kg/injection, schedule: Q01DX009 (ip), vehicle: saline with Tween-80 113 % of control | [23] 116 % of control and 117 % of control | [24] 103 % of control

CCC(=O)c1c(O)c2ccccc2oc1=O
inactive: dose: 15.0 mg/kg/injection, schedule: Q01DX005 (ip), vehicle: saline with Tween-80 104 % of control | dose: 30.0 mg/kg/injection, schedule: Q01DX005 (ip), vehicle: saline with Tween-80 107 % of control | [10] 104 % of control

O=C(NNc1ccc(F)cc1)C12CC3CC(CC(C3)C1)C2
inactive: [23] 103 % of control | [24] 99 % of control | [16] 87 % of control

N#Cc1ccc(NN=NCCF)cc1
inactive: dose: 6.25 mg/kg/injection, schedule: Q01DX005 (ip), vehicle: distilled water + Tween-80 100 % of control | dose: 6.25 mg/kg/injection, schedule: Q01DX005 (ip), vehicle: saline with Tween-80 117 % of control | dose: 12.5 mg/kg/injection, schedule: Q01DX005 (ip), vehicle: saline with Tween-80 121 % of control
